Experimental data: patent US20020155519A1 (priority 1997, published 2002)
Entries after “also recorded” stand apart in the source; their conditions may differ. Read-outs that look alike come from different tables or passages of the source.

Legend:
[1] = tested on: human blood bacterium (HBB); assay: Resistance of HBB to detergents and disinfectants; format: cell-based; conditions: for resistance of HBB to detergent (lysis): 0.1%
[2] = tested on: human blood bacterium (HBB); format: cell-based
Method: Normally 1 ml of serum was added to 9 ml of medium. Larger flasks with a proportionately larger amount of serum and medium are used to produce bacteria in quantity. Modulators might be added to some flasks in 10× or higher concentration (corresponding to addition of 1 ml or less). When examining the effect of modulators, control flasks were prepared similarly without the addition of the modulator. Levels were observed microscopically (inverted phase microscope, observing the number of organisms per field crudely or by actual count) after incubation, typically at several points in time.
When multiple comparisons were done at once, they were done in 12 well or 24 well cell culture plates, most often the latter. With the latter, typically 1 ml of medium inoculated with serum is added to each well, with modulators added at 10× or higher concentration (0.1 ml or less). When comparisons are done in well plates, control wells without any additions are included. Levels were observed microscopically (inverted phase microscope) after incubation, typically at several points in time. The well plate cultures were also used for antibiotic sensitivity testing.
These procedures are those known in the art and include uses of antibodies and DNA probes, Western and Southern blots, PCR and the diagnostic kits therefor. First, organisms can be quantified by culture. […] If a means is found to immobilize the bacteria to grow isolated colonies, counts will be more accurate. Quantification is used to follow the progress of treatment and to correlate HBB levels with specific disease syndromes. Quantification is used also for antibiotic sensitivity measurements, comparing the level of growth with antibiotic treatment to the level of growth without treatment. Such antibiotic sensitivity measurements establish the basis for the clinical choice of antibiotic drugs.

[3] = tested on: yeast-like forms of HBB; assay: Suppression of yeast-like forms of HBB by antifungal agents; format: cell-based, human blood bacterium (HBB)
[4] = tested on: HBB; format: in vivo, human; conditions: uncontrolled patient trials
Method: Experiments have been conducted investigating the correlation of the presence of or increased presence of HBB with the clinical symptoms of three autoimmune diseases, and the results of instituting an antibiotic regimen in patients. […] All patients were cultured repeatedly to determine levels of HBB. The antibiotic treatment regimen was based on antibiotic sensitivities done on a pilot series of cultures and on the known properties of the organism, which clearly requires long-term, continuous treatment to address its very slow growth rate. This approach differs from usual treatment regimens for other bacterial infections. Neither the subjects nor the investigators were blind, and there was no untreated or placebo-treated control group.
Antibiotic treatment consisted of one or more of the following three antibiotic regimens: (1) penicillin V, 500 mg four times a day, plus probenecid, 500 mg four times a day, plus Augmentin 500 mg four times a day; (2) ciprofloxacin, 500 mg three times a day; or (3) isoniazid, 100 mg three times a day. Most patients received a combination of two of the regimens concurrently.
A regime or schedule is continued to optimize effectiveness, balanced against negative effects of treatment.

[5] = tested on: extracellular exudate and the bacteria (HBB); assay: Lectin binding to HBB exudate (slime) and bacteria; parameters: species or system human blood bacterium (HBB)
Excerpt: The amount of the exudate produced is strongly influenced by or dependent upon the composition of the culture medium. The current medium formulae (L and O) have been designed to reduce slime production. In the original, crude medium, a centrifuged culture may consist of more than 10% of this gel by volume. In the L and O media, older cultures of HBB may develop a thin layer of gel that traps the cells and makes them adherent to the culture flask.

CCCCCCCCCCCCOS(=O)(=O)[O-].[Na+] [SDS]
resistance of HBB to detergent (lysis) [1]: does cause lysis

CC[C@H]1OC(=O)[C@H](C)[C@@H](O[C@H]2C[C@@](C)(OC)[C@@H](O)[C@H](C)O2)[C@H](C)[C@@H](O[C@@H]2O[C@H](C)C[C@H](N(C)C)[C@H]2O)[C@](C)(OC)C[C@@H](C)C(=O)[C@H](C)[C@@H](O)[C@]1(C)O [clarithromycin]
antibiotic sensitivity of HBB strains/isolates in culture ([2]; concentration not printed): some strains show sensitivity; also recorded: often stimulate growth
antibiotic sensitivity of HBB strains/isolates in culture ([2]; concentration not printed, listed as Clarithromycin): appears more effective in culture

Clc1ccccc1C(c1ccccc1)(c1ccccc1)n1ccnc1 [clotrimazol]
observed antibiotic and antifungal sensitivities (outcome, number of isolates) [2]: no effect (1 isolate)
suppression of yeast-like forms [3]: no suppression

Cc1onc(-c2ccccc2Cl)c1C(=O)N[C@@H]1C(=O)N2[C@@H]1SC(C)(C)[C@@H]2C(=O)O [cloxacillin]
observed antibiotic and antifungal sensitivities (outcome, number of isolates) ([2]; 2 μg/ml): no effect (16 isolates); also recorded: sensitive (5 isolates); also recorded: growth stimulated (6 isolates)
antibiotic sensitivity of HBB strains/isolates in culture ([2]; concentration not printed): occasional isolates show higher sensitivity

Nc1ccc(S(=O)(=O)c2ccc(N)cc2)cc1 [dapsone]
observed antibiotic and antifungal sensitivities (outcome, number of isolates) [2]: no effect (1 isolate)

Cc1onc(-c2c(Cl)cccc2Cl)c1C(=O)N[C@@H]1C(=O)N2[C@@H]1SC(C)(C)[C@@H]2C(=O)O [dicloxacillin]
clinical response in patients (in words) [4]: A few patients have done better

CC[C@H]1OC(=O)[C@H](C)[C@@H](O[C@H]2C[C@@](C)(OC)[C@@H](O)[C@H](C)O2)[C@H](C)[C@@H](O[C@@H]2O[C@H](C)C[C@H](N(C)C)[C@H]2O)[C@](C)(O)C[C@@H](C)C(=O)[C@H](C)[C@@H](O)[C@]1(C)O [erythromycin]
antibiotic sensitivity of HBB strains/isolates in culture [2]: resistant

Oc1c(Cl)cc(Cl)c(Cl)c1Cc1c(O)c(Cl)cc(Cl)c1Cl [hexachlorophene]
resistance of HBB to disinfectant [1]: resistant

CCN(CCO)CCCC(C)Nc1ccnc2cc(Cl)ccc12 (stereo not shown) [hydroxychloroquin]
antibiotic sensitivity of HBB strains/isolates in culture ([2]; concentration not printed): synergistic effect with a few isolates

NNC(=O)c1ccncc1 [isoniazid]
observed antibiotic and antifungal sensitivities (outcome, number of isolates) ([2]; 2 μg/ml): no effect (24 isolates); also recorded: sensitive (5 isolates); also recorded: growth stimulated (6 isolates)
antibiotic sensitivity of HBB strains/isolates in culture ([2]; concentration not printed): some isolates are sensitive

Clc1ccc(COC(Cn2ccnc2)c2ccc(Cl)cc2Cl)c(Cl)c1 (stereo not shown) [miconazol]
observed antibiotic and antifungal sensitivities (outcome, number of isolates) [2]: no effect (1 isolate)
suppression of yeast-like forms [3]: no suppression

CCCCCCCCCCCCN(C)CC(=O)O [n-laurylsarcosine]
resistance of HBB to detergent (lysis) [1]: resist

CCn1cc(C(=O)O)c(=O)c2ccc(C)nc21 [nalidixic acid]
observed antibiotic and antifungal sensitivities (outcome, number of isolates) ([2]; 4 μg/ml): no effect (1 isolate)

C[C@@H]1[C@H](O)[C@@H](C)/C=C/C=C/CC/C=C/C=C/C=C/C=C/C(O[C@H]2O[C@H](C)[C@@H](O)[C@H](N)[C@@H]2O)CC2O[C@](O)(CC(O)C(O)CCC(O)CC(O)CC(O)CC(=O)O[C@H]1C)CC(O)C2C(=O)O (stereo partly shown) [nystatin]
observed antibiotic and antifungal sensitivities (outcome, number of isolates) ([2]; saturated): no effect (1 isolate)
suppression of yeast-like forms [3]: no suppression

Cc1onc(-c2ccccc2)c1C(=O)N[C@@H]1C(=O)N2[C@@H]1SC(C)(C)[C@@H]2C(=O)O [oxacillin]
antibiotic sensitivity of HBB strains/isolates in culture [2]: occasional isolates show higher sensitivity

CC1(C)S[C@@H]2[C@H](NC(=O)Cc3ccccc3)C(=O)N2[C@H]1C(=O)O [penicillin G]
antibiotic sensitivity of HBB strains/isolates in culture ([2]; concentration not printed): relatively sensitive

CC1(C)S[C@@H]2[C@H](NC(=O)COc3ccccc3)C(=O)N2[C@H]1C(=O)O [penicillin V]
observed antibiotic and antifungal sensitivities (outcome, number of isolates) ([2]; 1-2 μg/ml): no effect (27 isolates); also recorded: sensitive (17 isolates); also recorded: growth stimulated (4 isolates)
antibiotic sensitivity of HBB strains/isolates in culture ([2]; concentration not printed): relatively sensitive

COc1cc(NC(C)CCCN)c2ncccc2c1 (stereo not shown) [primaquine]
observed antibiotic and antifungal sensitivities (outcome, number of isolates) [2]: no effect (31 isolates); also recorded: sensitive (15 isolates); also recorded: growth stimulated (1 isolate)

CCN(CC)CCCC(C)Nc1c2ccc(Cl)cc2nc2ccc(OC)cc12 (stereo not shown) [quinacrine]
observed antibiotic and antifungal sensitivities (outcome, number of isolates) [2]: no effect (1 isolate)

O=C([O-])c1ccccc1.[Na+] [sodium benzoate]
observed antibiotic and antifungal sensitivities (outcome, number of isolates) ([2]; 50 μg/ml): no effect (1 effect)
suppression of yeast-like forms [3]: no suppression

CCC(=O)[O-].[Na+] [sodium propionate]
observed antibiotic and antifungal sensitivities (outcome, number of isolates) ([2]; 50-250 μg/ml): no effect (2 isolates)
suppression of yeast-like forms [3]: no suppression

CCCCCCCCCCC(=O)[O-].[Na+] [sodium undecylate]
observed antibiotic and antifungal sensitivities (outcome, number of isolates) ([2]; 50 μg/ml): no effect (1 isolate)
suppression of yeast-like forms [3]: no suppression

Cc1cc(NS(=O)(=O)c2ccc(N)cc2)no1 [sulfamethoxazole]
antibiotic sensitivity of HBB strains/isolates in culture [2]: no effect (1 isolate)

Nc1ccc(S(=O)(=O)Nc2ccccn2)cc1 [sulfapyridine]
observed antibiotic and antifungal sensitivities (outcome, number of isolates) [2]: no effect (6 isolates); also recorded: no effect (1 isolate)

O=C(O)c1cc(/N=N/c2ccc(S(=O)(=O)Nc3ccccn3)cc2)ccc1O [sulfasalazine]
observed antibiotic and antifungal sensitivities (outcome, number of isolates) [2]: no effect (6 isolates); also recorded: no effect (isolate)

Cc1cccc(N(C)C(=S)Oc2ccc3ccccc3c2)c1 [tolnaftate]
observed antibiotic and antifungal sensitivities (outcome, number of isolates) ([2]; 2 μg/ml): no effect (1 isolate)

COc1cc(Cc2cnc(N)nc2N)cc(OC)c1OC [trimethoprim]
antibiotic sensitivity of HBB strains/isolates in culture [2]: resistance
observed antibiotic and antifungal sensitivities (outcome, number of isolates) [2]: no effect (1 isolate)

CN[C@H](CC(C)C)C(=O)N[C@H]1C(=O)N[C@@H](CC(N)=O)C(=O)N[C@H]2C(=O)N[C@H]3C(=O)N[C@H](C(=O)N[C@H](C(=O)O)c4cc(O)cc(O)c4-c4cc3ccc4O)[C@H](O)c3ccc(c(Cl)c3)Oc3cc2cc(c3O[C@@H]2O[C@H](CO)[C@@H](O)[C@H](O)[C@H]2O[C@H]2C[C@](C)(N)[C@H](O)[C@H](C)O2)Oc2ccc(cc2Cl)[C@H]1O [vancomycin]
observed antibiotic and antifungal sensitivities (outcome, number of isolates) [2]: no effect (1 isolate)

NP-40
resistance of HBB to detergent (lysis) [1]: resist

Triton X
resistance of HBB to detergent (lysis) [1]: resist

Tween-20
resistance of HBB to detergent (lysis) [1]: resist

amphoptericin
observed antibiotic and antifungal sensitivities (outcome, number of isolates) ([2]; 0.25 μg/ml): no effect (1 isolate)
suppression of yeast-like forms [3]: no suppression

benzalkonium chloride
resistance of HBB to disinfectant ([1]; 1:1000): resistant

gentamycin
observed antibiotic and antifungal sensitivities (outcome, number of isolates) ([2]; 2 μg/ml): no effect (1 isolate)

penicillin
clinical response in patients (in words) [4]: not effective for a sustained response in most patients; also recorded: short-term response in many

wheat germ agglutinin
binding of lectin to exudate and bacteria [5]: bind

B1: peanut agglutinin: lectin binding other sugars (protein, UniProt P02872 24-273, looked up)
Galactose-binding lectin: AETVSFNFNSFSEGNPAINFQGDVTVLSNGNIQLTNLNKVNSVGRVLYAMPVRIWSSATGNVASFLTSFSFEMKDIKDYDPADGIIFFIAPEDTQIPAGSIGGGTLGVSDTKGAGHFVGVEFDTYSNSEYNDPPTDHVGIDVNSVDSVKTVPWNSVSGAVVKVTVIYDSSTKTLSVAVTNDNGDITTIAQVVDLKAKLPERVKFGFSASGSLGGRQIHLIRSWSFTSTLITTTRRSIDNNEKKIMNMASA
binding of lectin to exudate and bacteria [5]: do not appear to bind
